SMILES strings stand for the structures. Where only a bound is given, the exact number is not on record here.

Assay [1] concerns the target T1, Brd4 bromodomain 1 (BRD4(1)) (Homo sapiens, UniProt O60885).
T1 construct: made in house; host or cells: E. coli BL21(DE3)
As to the kind of experiment: Inhibition of tetra-acetylated histone H4 binding to BET bromodomain (HTRF/FRET). As to conditions: His-tagged bromodomain 200 nM, biotinylated tetra-acetylated histone H4 peptide, 2 h room temperature. As for the experimental part:
Proteins were cloned and overexpressed with a N-terminal 6×His tag, then purified by nickel affinity followed by size exclusion chromatography. Briefly, E. coli BL21(DE3) cells were transformed with a recombinant expression vector encoding N-terminally Nickel affinity tagged bromodomains from Brd2, Brd3, Brd4. Cell cultures were incubated at 37° C. with shaking to the appropriate density and induced overnight with IPTG. The supernatant of lysed cells was loaded onto Ni-IDA column for purification, Eluted protein was pooled, concentrated and further purified by size exclusion chromatography. Fractions representing monomeric protein were pooled, concentrated, aliquoted, and frozen at −80° C. for use in subsequent experiments.
Binding of tetra-acetylated histone H4 and BET bromodomains was confirmed by a Homogenous Time Resolved Fluorescence Resonance Energy Transfer (HTRF®) method, N-terminally His-tagged bromodomains (200 nM) and biotinylated tetra-acetylated histone H4 peptide (25-50 nM, Millipore) were incubated in the presence of Europium Cryptate-labeled streptavidin (Cisbio Cat, #610SAKLB) and XL665-labeled monoclonal anti-His antibody (Cisbio Cat.1461HISXLB) in a white 96 well microtiter plate (Greiner). For inhibition assays, serially diluted test compound was added to these reactions in a 0.2% final concentration of DMSO. Duplicate wells were used for each concentration tested. Final buffer concentrations were 30 mM HEPES pH 7.4, 30 mM NaCl, 0.3 mM CHAPS, 20 mM phosphate pH 7.0, 320 mM KF, 0.08% BSA. After a 2 h incubation at room temperature, fluorescence was measured at 665 and 620 nm with a SynergyH4 plate reader (Biotek). The binding inhibitory activity was shown by a decrease in […] relative to 620 nm fluorescence. IC50 values were determined from a dose response curve.

A further assay relates to hIL-6. As to the kind of experiment: Inhibition of hIL-6 mRNA transcription in LPS-stimulated U937 cells. The assay is classed as cell-based, Human. As to conditions: 1 h pretreatment, LPS 3 h; for IC50: Homo sapiens, U-937, PMA-differentiated U937 cells, read-out: IL-6 activity. As for the experimental part: Human leukemic monocyte lymphoma U937 cells (CRL-1593.2) were plated at a density of 3.2×10^4 cells per well in a 96-well plate in 100 μL RPMI-1640 containing 10% FBS and penicillin/streptomycin, and differentiated into macrophages for 3 days in 60 ng/mL PMA ([…]) at 37° C. in 5% CO2 prior to the addition of compound. The cells were pretreated for 1 h with increasing concentrations of test compound in 0.1% DMSO prior to stimulation with 1 ug/mL lipopolysaccharide from Escherichia coli. Triplicate wells were used for each concentration. The cells were incubated at 37° C., 5% CO2 for 3 h before the cells were harvested. At time of harvest, media was removed and cells were rinsed in 200 μL PBS. Cells were harvested using the mRNA Catcher PLUS kit according to manufacturer's instructions. The eluted mRNA was then used in a one-step quantitative real-time PCR reaction using components of the RNA UltraSense™ One-Step Kit (Life Technologies) together with Applied Biosystems TaqMan® primer-probes for hIL-6 and Cyclophilin. Real-time PCR plates were run on a ViiA™7 real time PCR machine (Applied Biosystems), data was analyzed, normalizing the Ct values for hIL-6 to an internal control, prior to determining the fold expression of each sample, relative to the control.

In another assay the test system is cMYC. As to the kind of experiment: Inhibition of cMYC expression in MV4-11 cells (real-time PCR). The assay is classed as cell-based, Human. The settings on record: 3 h, cMYC mRNA; for IC50: Homo sapiens, read-out: c-myc activity. As for the experimental part:
MV4-11 cells (CRL-9591) were plated at a density of 2.5×10^4 cells per well in 96 well U-bottom plates and treated with increasing concentrations of test compound or DMSO (0.1%) in IMDM media containing 10% FBS and penicillin/streptomycin, and incubated for 3 h at 37° C. Triplicate wells were used for each concentration. Cells were pelleted by centrifugation and harvested using the mRNA Catcher PLUS kit according to manufacturer's instructions. The eluted mRNA isolated was then used in a one-step quantitative real-time PCR reaction, using components of the RNA UltraSense™ One-Step Kit (Life Technologies) together with Applied Biosystems TaqMan® primer-probes for cMYC and Cyclophilin, Real-time PCR plates were run on a ViiA™7 real time PCR machine (Applied Biosystems), data was analyzed, normalizing the Ct values for cMYC to an internal control, prior to determining the fold expression of each sample, relative to the control.

In another assay the test system is Human AML MV-4-11 cells. As to the kind of experiment: Inhibition of cell proliferation in MV4-11 cells (CellTiter Aqueous One). Type of assay: cell-based. As to conditions: 72 h; for IC50: Homo sapiens. On the procedure:
MV4-11 cells (CRL-9591) were plated at a density of 5×10^4 cells per well in 96 well flat bottom plates and treated with increasing concentrations of test compound or DMSO (0.1%) in IMDM media containing 10% FBS and penicillin/streptomycin. Triplicate wells were used for each concentration and a well containing only media was used as a control. Plates were incubated at 37° C., 5% CO2 for 72 h before adding 20 μL of the CellTiter Aqueous One Solution (Promega) to each well and incubated at 37° C., 5% CO2 for an additional 3-4 h. The absorbance was read at 490 nm in a spectrophotometer and the percentage of cell titer relative to DMSO-treated cells was calculated after correcting for background by subtracting the blank well's signal. IC50 values were calculated using the GraphPad Prism software.

Regarding `COc1ncc(-c2c(C)noc2C)cc1NCc1ccc2ccccc2n1` [Example 47, 5-(3,5-dimethylisoxazol-4-yl)-2-methoxy-N-(quinolin-2-ylmethyl)pyridin-3-amine], the IC50 in assay [1] was at most 0.3 µM. Besides, the IL-6 activity entry with hIL-6 (PMA-differentiated U937 cells) was “Not Active”. In addition, in the assay with cMYC, the c-myc activity entry is “Not Active”. Besides, the “Cell Proliferation activity” value in the assay with Human AML MV-4-11 cells was “Not Active”.
In the case of `Cc1noc(C)c1-c1cnc(Oc2ccccc2)c(NCc2ccccc2)c1` [Example 38, N-benzyl-5-(3,5-dimethylisoxazol-4-yl)-2-phenoxypyridin-3-amine], the IC50 was at most 0.3 µM in assay [1], 0.3 to 3 µM in the assay on hIL-6, 0.3 to 3 µM in the assay with cMYC and 3 to 30 µM in the assay on Human AML MV-4-11 cells.
With `COc1ncc(-c2c(C)noc2C)cc1OCc1ccsc1` [Example 37, 4-(6-methoxy-5-(thiophen-3-ylmethoxy)pyridin-3-yl)-3,5-dimethylisoxazole], the IC50 in assay [1] is at most 0.3 µM; with hIL-6 it was 0.3 to 3 µM; with cMYC, 0.3 to 3 µM; in the assay with Human AML MV-4-11 cells it was 0.3 to 3 µM.
As for `CNc1ncc(-c2c(C)noc2C)cc1NCc1nccs1` [Example 56, 5-(3,5-dimethylisoxazol-4-yl)-N2-methyl-N3-(thiazol-2-ylmethyl)pyridine-2,3-diamine], the IC50 in assay [1] was at most 0.3 µM; in the assay with hIL-6 it was 0.3 to 3 µM; with cMYC, 0.3 to 3 µM; with Human AML MV-4-11 cells, 0.3 to 3 µM.
As to `COc1ncc(-c2c(C)noc2C)cc1NCc1ccc(C#N)c(F)c1` [Example 29, 4-(((5-(3,5-dimethylisoxazol-4-yl)-2-methoxypyridin-3-yl)amino)methyl)-2-fluorobenzonitrile], the IC50 is at most 0.3 µM in assay [1], at most 0.3 µM in the assay with hIL-6, 0.3 to 3 µM with cMYC and 0.3 to 3 µM with Human AML MV-4-11 cells.
Regarding `COc1ncc(-c2c(C)noc2C)cc1NCCc1ccccc1` [Example 26, 5-(3,5-dimethylisoxazol-4-yl)-2-methoxy-N-phenethylpyridin-3-amine], the IC50 in assay [1] was 0.3 to 3 µM; in the assay on hIL-6, 3 to 30 µM; with cMYC, 3 to 30 µM; with Human AML MV-4-11 cells, 3 to 30 µM.
With `CCOc1ncc(-c2c(C)noc2C)cc1NCc1ccccc1` [Example 39, N-benzyl-5-(3,5-dimethylisoxazol-4-yl)-2-ethoxypyridin-3-amine], the IC50 in assay [1] is at most 0.3 µM; in the assay on hIL-6 it was 0.3 to 3 µM; in the assay on cMYC, 0.3 to 3 µM; with Human AML MV-4-11 cells it was 0.3 to 3 µM.
Take `COc1ncc(-c2c(C)noc2C)cc1Oc1cccnc1C` [Example 66, 4-(6-methoxy-5-((2-methylpyridin-3-yl)oxy)pyridin-3-yl)-3,5-dimethylisoxazole]: the IC50 fell in the range of 0.3 to 3 µM in assay [1], 0.3 to 3 µM with hIL-6, 3 to 30 µM in the assay with cMYC and 3 to 30 µM with Human AML MV-4-11 cells.
`CNc1ncc(-c2c(C)noc2C)cc1NCc1ccccn1` [Example 55, 5-(3,5-dimethylisoxazol-4-yl)-N2-methyl-N3-(pyridin-2-ylmethyl)pyridine-2,3-diamine]: the IC50 in assay [1] was at most 0.3 µM; with hIL-6 it was 0.3 to 3 µM; in the assay with cMYC, 0.3 to 3 µM; in the assay on Human AML MV-4-11 cells it was 0.3 to 3 µM.
As for `COc1ncc(-c2c(C)noc2C)cc1Nc1cn(C)nc1C` [Example 63, N-(1,3-dimethyl-1H-pyrazol-4-yl)-5-(3,5-dimethylisoxazol-4-yl)-2-methoxypyridin-3-amine], the IC50 in assay [1] is at most 0.3 µM; in the assay on hIL-6, 0.3 to 3 µM; in the assay with cMYC it was 0.3 to 3 µM; in the assay with Human AML MV-4-11 cells it was 0.3 to 3 µM.
In the case of `COc1ncc(-c2c(C)noc2C)cc1Oc1cc(C#N)ccc1C` [Example 65, 3-((5-(3,5-dimethylisoxazol-4-yl)-2-methoxypyridin-3-yl)oxy)-4-methylbenzonitrile], the IC50 in assay [1] fell in the range of 0.3 to 3 µM; in the assay on hIL-6, 0.3 to 3 µM; with cMYC it was 3 to 30 µM; with Human AML MV-4-11 cells, 3 to 30 µM.
Take `COc1ncc(-c2c(C)noc2C)cc1OC(C)c1ccccc1` (stereo not drawn) [Example 31, 4-(6-methoxy-5-(1-phenylethoxy)pyridin-3-yl)-3,5-dimethylisoxazole]: the IC50 in assay [1] was at most 0.3 µM; in the assay with hIL-6, 0.3 to 3 µM; with cMYC, 3 to 30 µM; in the assay on Human AML MV-4-11 cells, 0.3 to 3 µM.
Consider `CNc1ncc(-c2c(C)noc2C)cc1Nc1cc(C#N)ccc1C` [Example 64, 3-((5-(3,5-dimethylisoxazol-4-yl)-2-(methylamino)pyridin-3-yl)amino)-4-methylbenzonitrile], for which the IC50 in assay [1] lay in the range of 0.3 to 3 µM; in the assay with hIL-6 it was 0.3 to 3 µM; in the assay on cMYC, 0.3 to 3 µM; in the assay with Human AML MV-4-11 cells, 3 to 30 µM.
Turning to `COc1ncc(-c2c(C)noc2C)cc1OCc1ccc(F)cc1` [Example 32, 4-(5-((4-fluorobenzyl)oxy)-6-methoxypyridin-3-yl)-3,5-dimethylisoxazole], the IC50 in assay [1] is at most 0.3 µM; with hIL-6, 0.3 to 3 µM; with cMYC, 3 to 30 µM; in the assay with Human AML MV-4-11 cells, 3 to 30 µM.
In the case of `COc1ncc(-c2c(C)noc2C)cc1OCc1ccccn1` [Example 40, 4-(6-methoxy-5-(pyridin-2-ylmethoxy)pyridin-3-yl)-3,5-dimethylisoxazole], the IC50 was at most 0.3 µM in assay [1], 0.3 to 3 µM in the assay on hIL-6, 0.3 to 3 µM with cMYC and 3 to 30 µM with Human AML MV-4-11 cells.
Regarding `COc1ncc(-c2c(C)noc2C)cc1NC(C)c1ccc(F)cc1` (stereo not drawn) [Example 12, 5-(3,5-dimethylisoxazol-4-yl)-N-(1-(4-fluorophenyl)ethyl)-2-methoxypyridin-3-amine], the IC50 is at most 0.3 µM in assay [1], 0.3 to 3 µM in the assay on hIL-6, 0.3 to 3 µM with cMYC and 0.3 to 3 µM in the assay with Human AML MV-4-11 cells.
In the case of `COc1ncc(-c2c(C)noc2C)cc1NCc1nccs1` [Example 41, 5-(3,5-dimethylisoxazol-4-yl)-2-methoxy-N-(thiazol-2-ylmethyl)pyridin-3-amine], the IC50 in assay [1] is at most 0.3 µM; in the assay on hIL-6, 0.3 to 3 µM; in the assay on cMYC it was at most 0.3 µM; in the assay on Human AML MV-4-11 cells, 0.3 to 3 µM.
For `COc1ncc(-c2c(C)noc2C)cc1NCc1nc2ccccc2o1` [Example 46, N-(benzo[d]oxazol-2-ylmethyl)-5-(3,5-dimethylisoxazol-4-yl)-2-methoxypyridin-3-amine], the IC50 in assay [1] was at most 0.3 µM; in the assay with hIL-6, 0.3 to 3 µM; in the assay with cMYC, 0.3 to 3 µM; in the assay on Human AML MV-4-11 cells it was 3 to 30 µM.

The record behind these values is patent publication US10179125B2, “Substituted pyridines as bromodomain inhibitors” (Zenith Epigenetics Ltd., priority 2014, dated 2019).
